In BindingDB's records for doi:10.1021/jm900517t:

Assays:
Assay in all cases: HCV RNA-Dependent RNA Polymerase Assay (IC50)
[1] = biological target: T1, Genome polyprotein [2420-2989,M2842K,R2963Q] (Hepatitis C virus genotype 1b (isolate BK), UniProt P26663, M2842K/R2963Q); conditions: pH 7.5; 23 °C
T1 construct: 2420-2989

Genome polyprotein [2] = biological target: Genome polyprotein (Hepatitis C virus genotype 2b (isolate HC-J8), UniProt P26661)
[3] = biological target: T2, Genome polyprotein [2420-2989,R2920E,R2963Q] (Hepatitis C virus genotype 1b (isolate BK), UniProt P26663, R2920E/R2963Q); conditions: pH 7.5; 23 °C
T2 construct: 2420-2989

Genome polyprotein [4] = biological target: Genome polyprotein (Hepatitis C virus genotype 1b (isolate BK), UniProt P26663); conditions: pH 7.5; 23 °C
Chain of Genome polyprotein (Hepatitis C virus genotype 1b (isolate BK), UniProt P26663) (P26663 2420-3010 limits assumed): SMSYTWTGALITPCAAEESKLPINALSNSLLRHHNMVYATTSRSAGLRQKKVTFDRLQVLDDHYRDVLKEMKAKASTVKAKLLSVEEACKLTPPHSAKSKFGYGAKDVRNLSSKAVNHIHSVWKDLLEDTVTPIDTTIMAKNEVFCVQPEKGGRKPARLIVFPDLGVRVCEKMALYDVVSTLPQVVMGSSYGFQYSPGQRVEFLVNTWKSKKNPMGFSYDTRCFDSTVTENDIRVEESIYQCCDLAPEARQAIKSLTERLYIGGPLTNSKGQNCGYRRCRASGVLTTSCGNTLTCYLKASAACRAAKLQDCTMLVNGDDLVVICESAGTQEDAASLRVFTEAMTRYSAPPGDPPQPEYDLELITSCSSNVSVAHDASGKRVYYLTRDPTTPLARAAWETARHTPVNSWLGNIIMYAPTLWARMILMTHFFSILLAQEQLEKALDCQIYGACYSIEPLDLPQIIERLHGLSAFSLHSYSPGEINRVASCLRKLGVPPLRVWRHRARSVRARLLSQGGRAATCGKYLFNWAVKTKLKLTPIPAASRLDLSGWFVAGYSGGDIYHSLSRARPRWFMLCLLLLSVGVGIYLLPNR

Chain of Genome polyprotein (Hepatitis C virus genotype 2b (isolate HC-J8), UniProt P26661) (P26661 2443-3033 limits assumed): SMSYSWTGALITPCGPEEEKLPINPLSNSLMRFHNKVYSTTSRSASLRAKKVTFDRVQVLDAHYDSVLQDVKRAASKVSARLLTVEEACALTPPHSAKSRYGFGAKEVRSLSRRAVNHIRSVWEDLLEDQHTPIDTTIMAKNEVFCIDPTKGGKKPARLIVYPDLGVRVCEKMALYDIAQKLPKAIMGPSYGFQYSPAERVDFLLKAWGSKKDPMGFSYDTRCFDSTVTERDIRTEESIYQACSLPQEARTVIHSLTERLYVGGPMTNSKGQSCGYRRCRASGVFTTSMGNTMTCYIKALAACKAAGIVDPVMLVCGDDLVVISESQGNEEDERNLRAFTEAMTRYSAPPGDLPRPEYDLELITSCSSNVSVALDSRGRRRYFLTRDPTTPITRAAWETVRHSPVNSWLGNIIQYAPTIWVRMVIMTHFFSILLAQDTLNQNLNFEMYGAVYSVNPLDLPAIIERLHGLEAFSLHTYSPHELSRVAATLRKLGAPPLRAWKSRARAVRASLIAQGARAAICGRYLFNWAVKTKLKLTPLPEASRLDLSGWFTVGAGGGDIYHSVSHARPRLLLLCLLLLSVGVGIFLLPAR
T2 sequence (P26663 2420-2997, looked up, stated change not applied): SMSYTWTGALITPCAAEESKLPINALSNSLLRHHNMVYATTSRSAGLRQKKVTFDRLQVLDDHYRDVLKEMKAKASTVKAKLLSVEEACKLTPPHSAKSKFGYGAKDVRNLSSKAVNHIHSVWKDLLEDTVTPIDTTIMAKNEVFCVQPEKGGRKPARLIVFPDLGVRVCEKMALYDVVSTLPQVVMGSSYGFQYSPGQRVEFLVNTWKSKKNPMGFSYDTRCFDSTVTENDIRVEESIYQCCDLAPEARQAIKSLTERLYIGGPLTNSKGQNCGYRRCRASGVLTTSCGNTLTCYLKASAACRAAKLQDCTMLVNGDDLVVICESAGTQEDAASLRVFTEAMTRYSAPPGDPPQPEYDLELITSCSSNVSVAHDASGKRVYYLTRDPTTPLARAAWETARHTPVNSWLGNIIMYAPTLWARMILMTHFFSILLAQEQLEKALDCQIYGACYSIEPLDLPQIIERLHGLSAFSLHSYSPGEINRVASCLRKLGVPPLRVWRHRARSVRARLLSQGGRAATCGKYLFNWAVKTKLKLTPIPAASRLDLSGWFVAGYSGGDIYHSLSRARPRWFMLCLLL
T1 sequence (P26663 2420-2997, looked up, stated change not applied): as above

Row | SMILES | IC50 (Genome polyprotein [2]) [µM] | IC50 (Genome polyprotein [4]) [µM] | IC50 [1] [nM] | IC50 [3] [nM]
1 | CC(C)N(c1cc(-c2ccccc2)sc1C(=O)O)C(=O)[C@H]1CC[C@H](C)CC1 [thiophene scaffold, 21] | > 10 |  | > 500 | 100
2 | OCCNc1ccc2c3c(cccc13)CN(c1cccc(Br)c1)C2 [benzo[de]isoquinoline, 11] | > 50 | > 50 |  | 
3 | O=C1c2cccc3cccc(c23)C(=O)N1c1cccc(Br)c1 [1H-benzo[de]isoquinoline-1,3(2H)-dione, 5] | > 50 | > 50 |  | 
4 | O=C1c2cccc3c(NCCO)ccc(c23)C(=O)N1c1ccccc1 [1H-benzo[de]isoquinoline-1,3(2H)-dione, 4] | > 50 |  |  | 

Further lines, with some results ahead:

Row | IC50 (Genome polyprotein [2]) [µM] | IC50 (Genome polyprotein [4]) [µM] | SMILES | IC50 [1] [nM] | IC50 [3] [nM]
5 | > 50 |  | NS(=O)(=O)c1cccc(N2C(=O)c3cccc4c(NCCO)ccc(c34)C2=O)c1 [1H-benzo[de]isoquinoline-1,3(2H)-dione, 14] |  | 
6 | > 50 |  | O=C1c2cccc3c(NCCO)ccc(c23)C(=O)N1c1cccc(F)c1 [1H-benzo[de]isoquinoline-1,3(2H)-dione, 13] |  | 
